In patent US20190308933A1, “PHENYLAMIDINES AND THE USE THEREOF AS FUNGICIDES” (priority 2016, published 2019):
Where two headings read alike, the source gives them in different places.

Assays:
[1] = Log P measurement by HPLC on reversed phase columns (EEC directive 79/831 Annex V.A8); format: physicochemical; conditions: reversed phase HPLC column, LC-UV
Experimental: [table] Measurement of Log P values was performed according to EEC directive 79/831 Annex V.A8 by HPLC (High Performance Liquid Chromatography) on reversed phase columns with the following methods: If more than one Log P value is available within the same method, all the values are given and separated by “+”. […] Lambda-max-values were determined using UV-spectra from 200 nm to 400 nm and the peak values of the chromatographic signals.

Phakopsora pachyrhizi = assay: In vivo preventive test on Phakopsora (soybeans); design: species or system Phakopsora pachyrhizi (soybean rust) on soybeans; conditions: 168 h, young soybean plants sprayed, 10 ppm of active ingredient, evaluated 7 days after inoculation, 0% = untreated control, 100% = no disease, read-out: efficacy
Experimental: Example: In Vivo Preventive Test on Phakopsora Test (Soybeans)
To produce a suitable preparation of active compound, 1 part by weight of active compound is mixed with the stated amounts of solvent and emulsifier, and the concentrate is diluted with water to the desired concentration.
To test for preventive activity, young plants are sprayed with the preparation of active compound at the stated rate of application. After the spray coating has dried on, the plants are inoculated with an aqueous spore suspension of the causal agent of soybean rust (Phakopsora pachyrhizi) and stay for 24 h without light in an incubation cabinet at approximately 24° C. and a relative atmospheric humidity of 95%.
The plants remain in the incubation cabinet at approximately 24° C. and a relative atmospheric humidity of approximately 80% and a day/night interval of 12 h.
The test is evaluated 7 days after the inoculation. 0% means an efficacy which corresponds to that of the untreated control, while an efficacy of 100% means that no disease is observed.

[2] = acidic range, 0.1% formic acid in water and acetonitrile as eluent (linear gradient 10% to 95% acetonitrile), read-out: LogP [a]
[3] = neutral range, 0.001 molar ammonium acetate solution in water and acetonitrile as eluent (linear gradient 10% to 95% acetonitrile), read-out: LogP [b]

chromatographic logP [1, 2] | chromatographic logP [1, 3] | Compound | pest or weed control at 10 ppm (Phakopsora pachyrhizi)
1.63 | 4.92 | CCN(C)C=Nc1cc(Cl)c(Cc2cccc(F)c2F)cc1C [Example 24, N′-[5-chloro-4-[(2,3-difluorophenyl)methyl]-2-methylphenyl]-N-ethyl-N-methylmethanimidamide] | 90 to 100%
1.81 | 5.55 | CCN(C)C=Nc1cc(Cl)c(Cc2ccccc2Cl)cc1C [Example 30, N′-[5-chloro-4-[(2-chlorophenyl)methyl]-2-methylphenyl]-N-ethyl-N-methylmethanimidamide] | 90 to 100%
